Assay results published in patent US20140088056A1, “CARDIAC GLYCOSIDES ARE POTENT INHIBITORS OF INTERFERON-BETA GENE EXPRESSION” (priority 2010, published 2014).

Tests used:
IFNβ promoter [1] = assay: cells; format: cell-based, human
[2] = tested on: PRDIII/I element of the IFNβ promoter; format: cell-based, human; settings: 1 uM, compared with no drug treatment
[3] = tested on: PRDIV element of the IFNβ promoter; format: cell-based, human; settings: absence of virus infection
[4] = tested on: virus inducible genes in 293T cells; assay: Microarray and RT-PCR of gene expression in 293T cells treated with bufalin and/or SeV; format: cell-based, human
[5] = tested on: IFNβ and CXCL10 gene expression; assay: RT-PCR of dsRNA (poly I:C) and dsDNA (poly dA:dT) induced gene expression in 293T cells; format: cell-based, human; settings: 1 uM, 6 hrs
Namalwa cells = assay: RT-PCR of virus induced IFNβ gene expression in Namalwa cells; format: cell-based, human
Hela and MG63 cells = assay: RT-PCR of IFNβ gene induction in Hela and MG63 cells; format: cell-based, human
IFNβ promoter [6] = assay: IFNβ reporter induced by over-expression of RIG-I, MAVS or TBK1 in 293T cells; format: cell-based, human
[7] = tested on: PRDII element (NFkB binding site); format: cell-based, human; settings: bufalin and TNF 24 hrs
[8] = tested on: endogenous TNF target genes; assay: RT-PCR of TNF induced gene expression in 293T cells; format: cell-based, human; settings: 6 hrs
IFN signaling = assay: IFN induced gene expression in Hela cells; format: cell-based, human; settings: 1 μM
LPS signaling = assay: LPS induced gene expression in THP-1 cells; format: cell-based, human; settings: 1 μM
MAP kinase P42/p44 = assay: EGF induced phosphorylation of MAP kinase in 293T cells; format: cell-based, human; settings: 1 μM
293T cells [9] = assay: CellTiter-Blue and CellTiter-Glo viability assays; format: cell-based, human; settings: 1 nM to 10 μM, 8 hours
Experimental: (§1) The cells were also exposed to 0.1% Triton X-100 for 1 hr before the viability assay as a control (FIG. 16E). Data represent mean values±s.d. (n=3). […] Cells were harvested and washed, then stained with Allophycocyanin (APC) conjugated Annexin V and 7-AAD for 15 minutes and subjected to flow cytometry analysis. The number in each graph is the percentile of Annexin V or 7-AAD positive populations. […] Total protein lysates were prepared and separated on SDS-PAGE for Western blot analysis of PARP1, cleaved PARP1, cleaved Caspase3, LC3B, ATP1a1, and beta-actin expression.
8 hours later, 20 μl of the CellTiter-Blue reagent (Promega) was added to each well and incubated for two more hours at 37° C. Fluorescence was recorded from 560 nm excitation/590 nm emission with a Spectramax Plus 384 plate reader. For CellTiter-Glo Luminescent viability assay, […] reagent (Promega) was added to each well and mixed, and incubated for 10 minutes at room temperature. Luminescence was measured with an Analyst AD plate reader.

293T cells [10] = assay: Western blot analysis of apoptosis and autophagy; format: cell-based, human; settings: 8 hours, bufalin 1 nM to 10 μM, staurosporine 4 μM
Experimental: as §1
Apoptosis and autophagy were also analyzed by Western blots. […] Total protein lysates were prepared and separated on SDS-PAGE for Western blot analysis of PARP1, cleaved PARP1, cleaved Caspase3, LC3B, ATP1a1, and beta-actin expression.

mice = assay: LPS induced lethality in mice; format: in vivo; settings: 15 μg/mouse i.p. 30 min before LPS 80 mg/kg i.p.; 4 days
[11] = tested on: cytoplasmic RNA polymerase III; assay: Re-transfection of RNA from dsDNA transfected, bufalin treated 293T cells; format: cell-based, human
Experimental: Total RNA from these cells were extracted and re-transfected into fresh 293T cells (8 ug for 2 million cells) for 6 hrs, the induction of IFNβ and Cxcl10 genes from these samples were analyzed by RT-PCR.
Furthermore, RIG-I can also be the target in the dsDNA activation pathway. […] This was achieved through a critical sensor: RNA polymerase III, which transcribes 5′-ppp bearing “panhandle” RNA from the dsDNA template, these nascent RNAs then activated the IFNb expression through the RIG-1-MAVS pathway. See, for example, Ablasser, A. et al. RIG-I-dependent sensing of poly(dA:dT) through the induction of an RNA polymerase III-transcribed RNA intermediate. Nat Immunol 10, 1065-72 (2009) and Chiu, Y. H., Macmillan, J. B. & Chen, Z. J. RNA polymerase III detects cytosolic DNA and induces type I interferons through the RIG-I pathway. Cell 138, 576-91 (2009), content of both of which is herein incorporated by reference.

virus = assay: Virus replication; format: cell-based

`C[C@]12CC[C@H](O)C[C@H]1CC[C@@H]1[C@H]2CC[C@]2(C)[C@@H](c3ccc(=O)oc3)CC[C@]12O` [Bufalin] was tested, and the “inhibition of IFNβ expression” value (IFNβ promoter [1]; 1 uM) was “more than 90%”, the “Inhibition % @ 10 μM of virus induced IFNβ expression” value (IFNβ promoter [1]; 10 μM, chemical library screen) was 99.2% and the “IFN expression in the absence of virus infection” value (IFNβ promoter [1]; 1 and 10 uM, no virus) was “weakly induced”. The IC50 (IFNβ promoter [1]; Homo sapiens, HEK-293T, read-out: IC50 for inhibition of virus induced IFNβ expression) was 4.3 nM, the “repression of viral induction of luciferase expression, PRDIII/I reporter” value [2] was greater than 86% and the “activity of PRDIV reporter” value [3] was “weakly induced”. For the same molecule, the “IFNβ induction in cells preinfected with virus” value ([4]; SeV 1.5 hours, then 1 μM for 6 hours) was “strongly inhibits”, the “induction of virus-induced genes (IFNβ, IL-8, IFIT1-3, ISG15, OASL, CXCL10, CCL5)” value ([4]; bufalin plus SeV, 8 hrs) was “completely blocked” and the “IFNβ and CXCL10 gene expression in response to poly I:C and poly dA:dT” value [5] was “strongly inhibited”. The “virus-induced IFNβ gene expression in Namalwa cells” value (Namalwa cells) was “Strong inhibition”, the “poly I:C and poly dA:dT induced IFNβ expression in Hela and Mg63 cells” value (Hela and MG63 cells) was “strongly inhibited” and the “virus induced IFNβ expression in Hela and MG63 cells” value (Hela and MG63 cells) was “less than observed with 293T and Namalwa cells”. The “IFNβ reporter induction by MAVS over-expression” value (IFNβ promoter [6]) was “no effect”, the “IFNβ reporter induction by TBK1 over-expression” value (IFNβ promoter [6]) was “little effect” and the “virus induction of the IFNβ reporter when RIG-I was over-expressed” value (IFNβ promoter [6]) was “only slightly reduced”. For the same molecule, the “decrease of TNF induced luciferase gene expression” value [7] was 40%, the “expression of endogenous TNF target genes” value [8] was “significantly inhibited” and the “IFN induction of Stat1 and ISG15 genes” value (IFN signaling) was “no effect”. For the same molecule, the “IFN induced expression of Cxcl10 and RIG-I genes” value (IFN signaling; IFN 1000 U/ml, 6 hours) was “weakly inhibited”, the “LPS induction of Il-8, TNF and IKBa” value (LPS signaling) was “minimal” and the “LPS induced expression of Cxcl10 gene” value (LPS signaling; LPS 20 ng/ml, 2 hours) was “impaired”. The “EGF induced phosphorylation of MAP kinase P42/p44” value (MAP kinase P42/p44) was “no effect”, the cell viability (293T cells [9]) was “did not severely impair” and the “cleavage products of PARP1 and Caspase3 (indication of apoptosis)” value (293T cells [10]) was “not observed”. For the same molecule, the “induction of LC3B-II (marker of autophagy)” value (293T cells [10]; BFA 100 nM) was “not observed”, the “lethality induced by a high dose of LPS” value (mice) was “partially reduce” and the “activity of cytoplasmic RNA polymerase III” value [11] was “inhibited”. The virus replication (virus) was “inhibited”.
